Consider 15 molecules from patent US20090137572A1, “2-substituted-4-heteroaryl-pyrimidines useful for the treatment of proliferative disorders” (priority 2004, published 2009).

One assay addresses T1, Aurora A kinase (Homo sapiens, UniProt O14965).
T1 construct: purchased
T1 sequence (O14965 1-403): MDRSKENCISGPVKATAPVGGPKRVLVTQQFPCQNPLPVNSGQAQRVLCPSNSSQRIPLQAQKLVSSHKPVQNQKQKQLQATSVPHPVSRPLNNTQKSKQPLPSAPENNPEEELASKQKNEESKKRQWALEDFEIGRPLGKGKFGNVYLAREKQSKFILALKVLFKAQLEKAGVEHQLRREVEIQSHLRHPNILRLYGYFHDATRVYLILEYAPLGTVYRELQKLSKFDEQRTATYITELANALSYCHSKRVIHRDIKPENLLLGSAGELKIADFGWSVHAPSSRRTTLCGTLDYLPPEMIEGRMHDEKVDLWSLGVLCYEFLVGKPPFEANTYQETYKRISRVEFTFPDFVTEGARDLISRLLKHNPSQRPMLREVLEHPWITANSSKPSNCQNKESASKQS
The assay can be described thus: Aurora-A (human) kinase assay (Kemptide substrate). In kind it is biochemical. As to conditions: pIC50 is -log(IC50, M); 15 μM ATP. How it is done: Aurora-A (human) kinase assay. This was achieved by measurement of incorporation of radioactive phosphate from ATP into Kemptide substrate (LRRASLG), upon phosphorylation by commercially obtained aurora-A kinase. Assays were performed using 96-well plates and appropriate assay buffers (8 mM MOPS, 0.2 mM EDTA, pH 7.0), into which were added 5-10 ng of active enzyme with 200 μM substrate (Kemptide). The reactions were initiated by addition of Mg/ATP mix (10 mM MgAcetate+15 μM ATP with 30-50 kBq per well of [γ-^33P]-ATP) and mixtures incubated for 40 min at room temperature. Reactions were stopped by addition of 3% phosphoric acid, followed by filtration through p81 filterplates (Whatman Polyfiltronics, Kent, UK). After washing 5 times with 75 mM aq orthophosphoric acid and once in methanol, plates were dried, scintillant added and incorporated radioactivity measured in a scintillation counter (TopCount, Packard Instruments, Pangbourne, Berks, UK). Compounds for kinase assay were made up as 10 mM stocks in DMSO and diluted into 10% DMSO in assay buffer.
`Cc1nc(N(C)c2cccnc2)sc1-c1ccnc(Nc2ccc(N3CCOCC3)cc2)n1` [Compound 153, {4-[4-Methyl-2-(methyl-pyridin-3-yl-amino)-thiazol-5-yl]-pyrimidin-2-yl}-(4-morpholin-4-yl-phenyl)-amine]: the “Kinase Inhibition pIC50 Aurora A kinase” value worked out at 6.1.

The assay is the same for the next values; noted with them: pIC50 is -log(IC50, M); 15 μM ATP; read-out: Kinase Inhibition pIC50 Aurora A kinase (converted).
Turning to `Cc1nc(C)c(-c2ccnc(Nc3ccc(N4CCOCC4)c(C(N)=O)c3)n2)s1` [Compound 210, 5-[4-(2,4-Dimethyl-thiazol-5-yl)-pyrimidin-2-ylamino]-2-morpholin-4-yl-benzamide], the IC50 was 251 nM.
As to `Cc1ccc(-c2nc(C)c(-c3ccnc(Nc4ccc(N5CCOCC5)cc4)n3)s2)c(C)c1` [Compound 140, {4-[2-(2,4-Dimethyl-phenyl)-4-methyl-thiazol-5-yl]-pyrimidin-2-yl}-(4-morpholin-4-yl-phenyl)-amine], the IC50 is 1580 nM.
`Cc1cc(Nc2nccc(-c3sc(CO)nc3C)n2)ccc1N1CCCCC1` [Compound 209, {4-Methyl-5-[2-(3-methyl-4-piperidin-1-yl-phenylamino)-pyrimidin-4-yl]-thiazol-2-yl}-methanol]: the IC50 was 251 nM.
The same measure, in the same setting: then `Cc1nc(N(C)C)sc1-c1ccnc(N)n1` [Compound 88, 4-(2-Dimethylamino-4-methyl-thiazol-5-yl)-pyrimidin-2-ylamine], with 1580 nM; and `CCc1cc(-c2nc(C)c(-c3ccnc(Nc4cccc(CNC(C)=O)c4)n3)s2)ccn1` [Compound 105, N-(3-{4-[2-(2-Ethyl-pyridin-4-yl)-4-methyl-thiazol-5-yl]-pyrimidin-2-ylamino}-benzyl)-acetamide], with 316 nM; and `CCNc1nc(C)c(-c2ccnc(N)n2)s1` [Compound 86, 4-(2-Ethylamino-4-methyl-thiazol-5-yl)-pyrimidin-2-ylamine], with 1000 nM.
With `COc1ccc(Nc2nccc(-c3sc(-c4cccnc4)nc3C)n2)cc1C` [Compound 186, (4-Methoxy-3-methyl-phenyl)-[4-(4-methyl-2-pyridin-3-yl-thiazol-5-yl)-pyrimidin-2-yl]-amine], the IC50 was 501 nM.
As for `CCN(C(C)=O)c1nc(C)c(-c2ccnc(N)n2)s1` [Compound 87, N-[5-(2-Amino-pyrimidin-4-yl)-4-methyl-thiazol-2-yl]-N-ethyl-acetamide], the IC50 is 158 nM.
In the case of `COc1ccc(C)c(Nc2nccc(-c3sc(C)nc3C)n2)c1` [Compound 113, [4-(2,4-Dimethyl-thiazol-5-yl)-pyrimidin-2-yl]-(5-methoxy-2-methyl-phenyl)-amine], the IC50 is 5010 nM.
Turning to `Cc1nc(-c2cccnc2)sc1-c1ccnc(Nc2ccc3c(c2)OCCO3)n1` [Compound 180, (2,3-Dihydro-benzo[1,4]dioxin-6-yl)-[4-(4-methyl-2-pyridin-3-yl-thiazol-5-yl)-pyrimidin-2-yl]-amine], the IC50 was 1580 nM.
For `CNc1nc(C)c(-c2ccnc(N)n2)s1` [Compound 85, 4-(4-Methyl-2-methylamino-thiazol-5-yl)-pyrimidin-2-ylamine], the IC50 was 398 nM.
Consider `Cc1nc(-c2ccc(N3CCOCC3)cc2)sc1-c1ccnc(Nc2ccc(N3CCOCC3)cc2)n1` [Compound 147, {4-[4-Methyl-2-(4-morpholin-4-yl-phenyl)-thiazol-5-yl]-pyrimidin-2-yl}-(4-morpholin-4-yl-phenyl)-amine], for which the IC50 is 501 nM.
Consider `Cc1nc(NCCc2ccccc2)sc1-c1ccnc(Nc2ccc3c(c2)OCCO3)n1` [Compound 183, (2,3-Dihydro-benzo[1,4]dioxin-6-yl)-[4-(4-methyl-2-phenethylamino-thiazol-5-yl)-pyrimidin-2-yl]-amine], for which the IC50 was 1260 nM.
Same read-out and setting: the result for `CCNc1nc(C)c(-c2ccnc(Nc3ccc(N4CCOCC4)cc3C)n2)s1` [Compound 146, [4-(2-Ethylamino-4-methyl-thiazol-5-yl)-pyrimidin-2-yl]-(2-methyl-4-morpholin-4-yl-phenyl)-amine] reads 2510 nM.
